Assay [1] deals with T1, Serine/threonine-protein kinase Nek2 (Homo sapiens) (UniProt P51955).
T1 sequence (whole entry): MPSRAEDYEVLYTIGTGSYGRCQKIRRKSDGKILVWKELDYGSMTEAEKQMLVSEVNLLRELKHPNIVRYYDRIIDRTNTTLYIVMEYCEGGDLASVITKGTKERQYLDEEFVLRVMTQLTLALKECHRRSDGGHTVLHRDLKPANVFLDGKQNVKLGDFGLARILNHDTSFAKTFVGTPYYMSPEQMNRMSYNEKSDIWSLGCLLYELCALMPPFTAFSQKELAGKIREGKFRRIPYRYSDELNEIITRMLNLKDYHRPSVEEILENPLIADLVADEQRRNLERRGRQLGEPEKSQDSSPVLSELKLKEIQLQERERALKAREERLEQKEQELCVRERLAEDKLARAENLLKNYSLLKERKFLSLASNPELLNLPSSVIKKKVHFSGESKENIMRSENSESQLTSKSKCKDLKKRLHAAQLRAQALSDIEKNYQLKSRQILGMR
The assay can be described thus: Inhibition of human recombinant NEK2 at 40 nM related to control ULK1.

In assay [2] the target is Mitogen-activated protein kinase 14 (Homo sapiens) (UniProt Q16539). The assay can be described thus: Inhibition of human recombinant p38alpha at 40 nM related to control ULK1.
Assay [3] deals with Calcium/calmodulin-dependent protein kinase kinase 2 (Homo sapiens) (UniProt Q96RR4). In words: Inhibition of human recombinant CaMKK2 at 500 nM in presence of ATP by radiometric assay relative to control.
Assay [4] has as its target Mitogen-activated protein kinase 8 (Homo sapiens) (UniProt P45983). The assay can be described thus: Inhibition of human recombinant JNK1 at 500 nM in presence of ATP by radiometric assay relative to control.
Assay [5] deals with Interferon-induced, double-stranded RNA-activated protein kinase (Homo sapiens) (UniProt P19525). The assay can be described thus: Inhibition of human recombinant PKR at 500 nM in presence of ATP by radiometric assay relative to control.
In assay [6] the target is Casein kinase I isoform gamma-1 (Homo sapiens) (UniProt Q9HCP0). The assay can be described thus: Inhibition of human recombinant CK1g1 at 500 nM related to control ULK1.
Assay [7] deals with T2, Serine/threonine-protein kinase D3 (Homo sapiens) (UniProt O94806).
T2 sequence (whole entry): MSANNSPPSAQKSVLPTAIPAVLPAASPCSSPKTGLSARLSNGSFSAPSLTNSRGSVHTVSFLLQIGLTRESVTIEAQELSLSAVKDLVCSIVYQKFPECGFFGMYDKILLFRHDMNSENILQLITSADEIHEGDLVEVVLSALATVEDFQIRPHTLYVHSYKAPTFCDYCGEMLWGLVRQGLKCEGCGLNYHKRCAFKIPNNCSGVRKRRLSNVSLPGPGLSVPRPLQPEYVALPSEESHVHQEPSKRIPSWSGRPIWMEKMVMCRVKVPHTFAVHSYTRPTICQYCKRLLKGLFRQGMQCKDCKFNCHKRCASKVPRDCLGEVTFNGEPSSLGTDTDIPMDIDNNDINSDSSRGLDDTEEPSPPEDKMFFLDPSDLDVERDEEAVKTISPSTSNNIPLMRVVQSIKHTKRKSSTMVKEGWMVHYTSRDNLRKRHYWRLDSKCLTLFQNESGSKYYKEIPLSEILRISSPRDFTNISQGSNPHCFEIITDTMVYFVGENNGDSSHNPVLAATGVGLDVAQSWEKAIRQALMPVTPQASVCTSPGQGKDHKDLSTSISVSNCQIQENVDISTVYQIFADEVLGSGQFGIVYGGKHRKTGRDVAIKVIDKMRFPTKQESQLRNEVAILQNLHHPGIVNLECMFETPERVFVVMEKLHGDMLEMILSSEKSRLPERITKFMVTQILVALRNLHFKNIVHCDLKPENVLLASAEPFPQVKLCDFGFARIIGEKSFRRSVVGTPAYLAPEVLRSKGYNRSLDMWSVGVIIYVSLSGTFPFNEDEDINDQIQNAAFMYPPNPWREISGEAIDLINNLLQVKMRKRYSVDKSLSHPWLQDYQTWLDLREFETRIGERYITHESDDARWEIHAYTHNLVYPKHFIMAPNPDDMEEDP
In words: Inhibition of human recombinant PKD3 at 500 nM related to control ULK1.

The target in assay [8] is Dual specificity tyrosine-phosphorylation-regulated kinase 1A (Homo sapiens) (UniProt Q13627). In words: Inhibition of human recombinant DYRK1A at 15 nM in presence of ATP by radiometric assay relative to control.
Assay [9] has as its target T3, Eukaryotic elongation factor 2 kinase (Homo sapiens) (UniProt O00418).
T3 sequence (whole entry): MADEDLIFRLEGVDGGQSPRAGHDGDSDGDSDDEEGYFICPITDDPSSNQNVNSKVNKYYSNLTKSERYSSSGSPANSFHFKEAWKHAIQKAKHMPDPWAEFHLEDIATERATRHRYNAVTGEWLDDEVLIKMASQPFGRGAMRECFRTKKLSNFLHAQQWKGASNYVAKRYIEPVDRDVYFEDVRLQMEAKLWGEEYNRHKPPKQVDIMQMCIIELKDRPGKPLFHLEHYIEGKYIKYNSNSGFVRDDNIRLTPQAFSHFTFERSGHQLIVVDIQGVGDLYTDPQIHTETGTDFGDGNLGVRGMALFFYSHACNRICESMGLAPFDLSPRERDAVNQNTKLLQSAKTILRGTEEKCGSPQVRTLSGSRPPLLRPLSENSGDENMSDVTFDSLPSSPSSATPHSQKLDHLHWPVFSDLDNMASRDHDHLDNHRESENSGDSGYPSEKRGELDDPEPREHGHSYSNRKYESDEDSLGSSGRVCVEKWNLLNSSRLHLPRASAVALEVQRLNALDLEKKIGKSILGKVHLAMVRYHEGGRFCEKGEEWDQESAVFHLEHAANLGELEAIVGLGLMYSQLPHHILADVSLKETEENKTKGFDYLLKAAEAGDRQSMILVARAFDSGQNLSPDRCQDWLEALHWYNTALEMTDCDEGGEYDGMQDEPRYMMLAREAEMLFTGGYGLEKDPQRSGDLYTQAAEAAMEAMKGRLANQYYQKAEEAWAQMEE
The assay can be described thus: Inhibition of human recombinant eEF2K at 15 nM in presence of ATP by radiometric assay relative to control.

Assay [10] addresses Mitogen-activated protein kinase 14 (Homo sapiens) (UniProt Q16539). The assay can be described thus: Inhibition of human recombinant p38alpha at 15 nM in presence of ATP by radiometric assay relative to control.
The target of assay [11] is Wee1-like protein kinase (Homo sapiens) (UniProt P30291). The assay can be described thus: Inhibition of human recombinant Wee1 at 15 nM in presence of ATP by radiometric assay relative to control.
The target in assay [12] is Calcium/calmodulin-dependent protein kinase type II subunit gamma (Homo sapiens) (UniProt Q13555). In words: Inhibition of human recombinant CaMK2g at 15 nM related to control ULK1.
Chain of Calcium/calmodulin-dependent protein kinase type II subunit gamma (Homo sapiens) (Q13555 whole entry): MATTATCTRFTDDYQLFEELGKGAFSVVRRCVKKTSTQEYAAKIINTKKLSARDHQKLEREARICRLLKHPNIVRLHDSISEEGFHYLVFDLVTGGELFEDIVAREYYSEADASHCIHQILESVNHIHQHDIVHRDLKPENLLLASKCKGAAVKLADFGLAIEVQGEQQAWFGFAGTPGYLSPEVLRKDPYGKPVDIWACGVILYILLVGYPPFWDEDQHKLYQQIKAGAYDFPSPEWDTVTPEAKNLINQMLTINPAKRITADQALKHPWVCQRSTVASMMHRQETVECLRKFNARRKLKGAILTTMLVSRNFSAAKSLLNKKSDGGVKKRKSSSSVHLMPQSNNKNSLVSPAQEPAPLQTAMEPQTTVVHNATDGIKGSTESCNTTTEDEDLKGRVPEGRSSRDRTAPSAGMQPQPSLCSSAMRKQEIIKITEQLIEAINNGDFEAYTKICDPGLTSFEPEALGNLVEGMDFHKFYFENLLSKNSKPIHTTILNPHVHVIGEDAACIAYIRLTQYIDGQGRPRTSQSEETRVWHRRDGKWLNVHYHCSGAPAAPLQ

Chain of Mitogen-activated protein kinase 14 (Homo sapiens) (Q16539 whole entry): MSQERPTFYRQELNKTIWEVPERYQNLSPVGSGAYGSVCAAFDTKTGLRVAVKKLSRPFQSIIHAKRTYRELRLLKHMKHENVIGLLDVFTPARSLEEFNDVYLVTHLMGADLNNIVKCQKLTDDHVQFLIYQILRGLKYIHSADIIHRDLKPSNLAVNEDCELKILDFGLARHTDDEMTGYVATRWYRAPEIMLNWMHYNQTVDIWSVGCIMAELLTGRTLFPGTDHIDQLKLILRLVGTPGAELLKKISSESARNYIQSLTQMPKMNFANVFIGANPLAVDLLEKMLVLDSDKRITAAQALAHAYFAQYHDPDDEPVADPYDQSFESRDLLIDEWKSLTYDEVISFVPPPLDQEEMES
Chain of Casein kinase I isoform gamma-1 (Homo sapiens) (Q9HCP0 whole entry, looked up, canonical isoform): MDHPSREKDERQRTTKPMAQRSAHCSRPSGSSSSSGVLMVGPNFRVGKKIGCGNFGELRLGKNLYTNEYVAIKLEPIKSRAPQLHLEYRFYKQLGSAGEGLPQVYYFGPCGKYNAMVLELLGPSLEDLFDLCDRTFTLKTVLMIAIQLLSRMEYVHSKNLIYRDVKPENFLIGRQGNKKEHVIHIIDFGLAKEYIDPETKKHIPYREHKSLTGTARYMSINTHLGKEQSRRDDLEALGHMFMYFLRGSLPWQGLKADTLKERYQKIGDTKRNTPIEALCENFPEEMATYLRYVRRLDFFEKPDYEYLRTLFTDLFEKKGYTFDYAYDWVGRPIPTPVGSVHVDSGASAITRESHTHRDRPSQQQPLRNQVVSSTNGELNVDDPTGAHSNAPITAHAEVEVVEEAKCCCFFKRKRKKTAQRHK
Chain of Wee1-like protein kinase (Homo sapiens) (P30291 whole entry, looked up): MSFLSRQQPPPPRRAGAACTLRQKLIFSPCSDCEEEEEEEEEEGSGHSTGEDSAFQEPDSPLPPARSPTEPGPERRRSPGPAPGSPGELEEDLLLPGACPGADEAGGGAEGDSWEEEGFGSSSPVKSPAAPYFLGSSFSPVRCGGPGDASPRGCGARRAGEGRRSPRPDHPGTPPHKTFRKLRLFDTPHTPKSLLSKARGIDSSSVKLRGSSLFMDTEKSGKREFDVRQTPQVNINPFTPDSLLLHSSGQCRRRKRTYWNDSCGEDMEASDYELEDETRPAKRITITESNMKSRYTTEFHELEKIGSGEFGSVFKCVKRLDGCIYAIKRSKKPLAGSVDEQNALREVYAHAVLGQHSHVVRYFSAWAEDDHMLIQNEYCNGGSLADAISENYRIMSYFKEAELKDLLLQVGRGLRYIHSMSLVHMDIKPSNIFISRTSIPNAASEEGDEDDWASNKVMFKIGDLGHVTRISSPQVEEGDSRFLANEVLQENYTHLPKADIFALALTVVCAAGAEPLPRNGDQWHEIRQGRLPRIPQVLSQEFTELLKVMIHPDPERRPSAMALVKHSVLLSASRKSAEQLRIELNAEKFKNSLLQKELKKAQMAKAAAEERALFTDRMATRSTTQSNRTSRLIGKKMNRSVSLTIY
Chain of Interferon-induced, double-stranded RNA-activated protein kinase (Homo sapiens) (P19525 whole entry, canonical isoform): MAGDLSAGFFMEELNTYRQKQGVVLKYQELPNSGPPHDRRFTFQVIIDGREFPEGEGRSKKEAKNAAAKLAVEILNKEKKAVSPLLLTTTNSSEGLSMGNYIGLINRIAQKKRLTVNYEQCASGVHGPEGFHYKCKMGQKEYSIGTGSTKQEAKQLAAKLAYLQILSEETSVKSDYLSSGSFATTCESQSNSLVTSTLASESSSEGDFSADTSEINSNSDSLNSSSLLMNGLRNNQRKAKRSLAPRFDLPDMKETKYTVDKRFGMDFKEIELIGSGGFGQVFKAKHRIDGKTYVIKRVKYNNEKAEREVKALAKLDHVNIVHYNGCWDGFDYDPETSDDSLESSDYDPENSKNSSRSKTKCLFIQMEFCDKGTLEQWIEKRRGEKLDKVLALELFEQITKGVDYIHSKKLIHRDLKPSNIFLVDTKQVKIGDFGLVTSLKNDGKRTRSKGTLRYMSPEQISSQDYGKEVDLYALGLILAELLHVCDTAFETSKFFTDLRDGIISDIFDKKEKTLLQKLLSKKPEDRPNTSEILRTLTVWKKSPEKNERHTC
Chain of Mitogen-activated protein kinase 8 (Homo sapiens) (P45983 whole entry): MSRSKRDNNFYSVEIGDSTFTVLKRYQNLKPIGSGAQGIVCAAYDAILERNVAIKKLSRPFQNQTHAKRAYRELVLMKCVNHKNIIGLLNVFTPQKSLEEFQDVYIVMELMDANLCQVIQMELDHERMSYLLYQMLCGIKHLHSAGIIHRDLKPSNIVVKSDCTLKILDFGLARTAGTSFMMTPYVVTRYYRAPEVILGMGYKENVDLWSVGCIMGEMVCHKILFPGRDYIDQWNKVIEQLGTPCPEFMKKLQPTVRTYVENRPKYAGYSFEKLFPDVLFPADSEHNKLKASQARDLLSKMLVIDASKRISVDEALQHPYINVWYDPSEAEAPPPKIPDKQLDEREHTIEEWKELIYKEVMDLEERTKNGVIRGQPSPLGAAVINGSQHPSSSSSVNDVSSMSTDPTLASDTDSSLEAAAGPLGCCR
Chain of Calcium/calmodulin-dependent protein kinase kinase 2 (Homo sapiens) (Q96RR4 2-588 limits assumed): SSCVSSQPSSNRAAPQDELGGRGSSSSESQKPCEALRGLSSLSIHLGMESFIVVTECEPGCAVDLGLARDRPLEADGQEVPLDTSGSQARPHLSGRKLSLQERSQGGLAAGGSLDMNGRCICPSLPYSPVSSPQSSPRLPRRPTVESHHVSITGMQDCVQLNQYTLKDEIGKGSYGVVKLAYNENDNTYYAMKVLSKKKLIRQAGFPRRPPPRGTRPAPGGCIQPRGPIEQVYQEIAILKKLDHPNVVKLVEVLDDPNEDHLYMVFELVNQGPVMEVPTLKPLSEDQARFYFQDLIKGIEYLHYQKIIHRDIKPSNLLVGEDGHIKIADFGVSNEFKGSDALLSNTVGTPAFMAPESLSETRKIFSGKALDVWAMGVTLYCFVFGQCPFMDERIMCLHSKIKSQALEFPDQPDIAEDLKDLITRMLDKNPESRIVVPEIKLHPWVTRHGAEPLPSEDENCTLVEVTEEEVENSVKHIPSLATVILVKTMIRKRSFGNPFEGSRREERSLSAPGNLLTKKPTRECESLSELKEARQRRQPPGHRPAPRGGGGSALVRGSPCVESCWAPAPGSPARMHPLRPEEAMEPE

For `O=C(N[C@@H](C1CC1)C(F)(F)F)c1cc(-c2cnn3cc(-c4ccc(F)cc4)cnc23)cs1`, the fold change (FC) is 0 in assay [1] and 0.01 in assay [2].

Consider `CNC(=O)c1ccccc1Oc1nc(Nc2cc(OC)c(OC)c(OC)c2)ncc1Br`, for which the inhibition in assay [3] came out at 4%; in assay [4], 1%; in assay [5], 4%. In addition, the fold change (FC) in assay [6] and in assay [7] was 0 throughout.

As to `CC(C)[C@H](NC(=O)c1cc(-c2cnn3cc(-c4ccc(OCCN5CCCCC5)cc4)cnc23)cs1)C(F)(F)F`, the inhibition in assay [8] was determined as 73%; in [9], 10%; in assay [10], 5%; in [11], 15%. In addition, the fold change (FC) in [12] worked out at 0.25.

What is called inhibition is the share of the control response that was lost under treatment.

Values taken from ChEMBL document CHEMBL5653631, “A Potent and Selective ULK1 Inhibitor Suppresses Autophagy and Sensitizes Cancer Cells to Nutrient Stress” (iScience, 2018).
